Converted amounts (≈) assume the structure as drawn. Read-outs that look alike come from different tables or passages of the source.
Tests used:
[1] = system: Candida albicans ATCC 10231; assay: In vitro antifungal MIC, Candida albicans ATCC 10231; format: cell-based
Protocol: (§1) The in vitro antifungal activity of the compounds of the present invention against a variety of fungiwas determined as follow: Test medium was prepared by dissolving first 5 g of dextrose and then 6.7 g of Bacto Yeast Nitrogen Base® (commercially available from Difco Laboratories) in 100 mL of distilled water. The solution was filter-sterilized and diluted 1:10 with 0.01M pH 8.0 phosphate buffer solution, and the final pH of the medium adjusted to about pH 7.0 when necessary with either 0.1N hydrochloric acid solution of 0.1N sodium hydroxide solution. […] These concentrated stock solutions were diluted to a concentration of 200 μg/mL (twice the highest concentration desired for testing) with the test medium. Amphotericin B, similarly prepared, was used as a reference antifungal agent.
(§2) The test organisms were then inoculated into test tubes containing approximately 3 to 10 mL of test medium and the test tubes incubated overnight at 37° C. A sample of each overnight culture was placed in a test tube and diluted using the test medium until a reading of 95% transmittance was obtained in a conventional UV/visible spectrophotometer set to 560 nm. The adjusted cultures were then diluted 1:50 with test medium. These diluted cultures served as the inocula for the assays which follow and were used within 15 minutes of preparation.
(§3) Next, 2-fold serial dilutions of each test compound in test medium were prepared in a 96-well microtiter plate using calibrated microdiluters attached to an automatic (hand-held) diluter (available from Dynatech Laboratories).
(§4) Using sterile calibrated droppers or a multi-point dispenser, the diluted inoculum suspension was added to each of the wells in the plate. When inoculation was complete, the microtiter tray was covered with a plastic plate sealer to minimize evaporation. After the plate had been sealed, a hole was made above each well with a sterile 26-gauge syringe needle in order to allow gas exchange. If plate sealers were not available, the microtiter trays were stacked in groups of five or less with an empty tray on top. The microtiter trays were then incubated in a humidified chamber at 35°-37° C. for 48 hours or until growth was visible in the growth control wells.
(§5) The minimum inhibitory concentration (MIC) was defined as the lowest concentration of test compound yielding no growth, a slight haze or sparsely isolated colonies on the inoculum spot as compared to the growth control containing no test compound.

Candida albicans CCH 442 = assay: In vitro antifungal MIC, Candida albicans CCH 442; format: cell-based
Protocol: as §1, §2, §3, §4, §5

Candida albicans 579A = assay: In vitro antifungal MIC, Candida albicans 579A; format: cell-based
Protocol: as §1, §2, §3, §4, §5

fungi = settings: cited from earlier work
[2] = system: Aspergillus niger ATCC 16404; assay: In vitro antifungal MIC, Aspergillus niger ATCC 16404; format: cell-based
Protocol: as §1, §2, §3, §4, §5

[3] = system: Candida tropicalis NRRL-Y-112; assay: In vitro antifungal MIC, Candida tropicalis NRRL-Y-112; format: cell-based
Protocol: as §1, §2, §3, §4, §5

[4] = system: Candida albicans ATCC 62376; assay: In vitro antifungal MIC, Candida albicans ATCC 62376; format: cell-based
Protocol: as §1, §2, §3, §4, §5

[5] = in vivo; cited from earlier work
Candida kefyr ATCC 28838 = assay: In vitro antifungal MIC, Candida kefyr ATCC 28838; format: cell-based; settings: Kluyveromyces marxianus
Protocol: as §1, §2, §3, §4, §5

[6] = system: Candida albicans ATCC 38247; assay: In vitro antifungal MIC, Candida albicans ATCC 38247; format: cell-based
Protocol: as §1, §2, §3, §4, §5

[7] = in vivo, cited from earlier work
kidney function = settings: patients treated with amphotericin B; cited from earlier work
[8] = system: Torulopsis glabrata ATCC 15545; assay: In vitro antifungal MIC, Torulopsis glabrata ATCC 15545; format: cell-based; settings: Nakaseomyces glabratus
Protocol: as §1, §2, §3, §4, §5

[9] = system: Cryptococcus albidus ATCC 34140; assay: In vitro antifungal MIC, Cryptococcus albidus ATCC 34140; format: cell-based; settings: Naganishia albida
Protocol: as §1, §2, §3, §4, §5

[10] = system: biosynthesis of testosterone; settings: cited from earlier work
[11] = ATCC10231, Candida albicans ATCC 10231, 35°-37° C., 48 hours, read-out: MIC
[12] = CCH442, Candida albicans CCH 442, 35°-37° C., 48 hours, read-out: MIC
[13] = Candida albicans 579A, 35°-37° C., 48 hours, read-out: MIC
[14] = ATCC16404, Aspergillus niger ATCC 16404, 35°-37° C., 48 hours, read-out: MIC
[15] = NRRLY112, Candida tropicalis NRRL-Y-112, 35°-37° C., 48 hours, read-out: MIC
[16] = ATCC62376, Candida albicans ATCC 62376, 35°-37° C., 48 hours, read-out: MIC
[17] = ATCC28838, Candida kefyr ATCC 28838, 35°-37° C., 48 hours, read-out: MIC
[18] = ATCC38247, Candida albicans ATCC 38247, 35°-37° C., 48 hours, read-out: MIC
[19] = ATCC15545, Torulopsis glabrata ATCC 15545, 35°-37° C., 48 hours, read-out: MIC
[20] = ATCC34140, Cryptococcus albidus ATCC 34140, 35°-37° C., 48 hours, read-out: MIC

C[C@@H]1[C@H](O)[C@@H](C)/C=C/C=C/C=C/C=C/C=C/C=C/C=C/[C@H](O[C@@H]2O[C@H](C)[C@@H](O)[C@H](N)[C@@H]2O)C[C@@H]2O[C@](O)(C[C@@H](O)C[C@@H](O)[C@H](O)CC[C@@H](O)C[C@@H](O)CC(=O)O[C@H]1C)C[C@H](O)[C@H]2C(=O)O [Amphotericin B, reference compound]
MIC ([1]; Candida albicans, ATCC10231, 48 h): 1.56 µg/mL (≈ 1.69 µM) | MIC (Candida albicans CCH 442; Candida albicans, CCH442, 48 h): 1.56 µg/mL (≈ 1.69 µM) | MIC (Candida albicans 579A; Candida albicans, 579A, 48 h): 1.56 µg/mL (≈ 1.69 µM) | fungistatic/fungicidal action (fungi): fungicidal | MIC ([2]; Aspergillus niger, ATCC16404, 48 h): 3.12 µg/mL (≈ 3.38 µM) | MIC ([3]; Candida tropicalis, NRRLY112, 48 h): 1.56 µg/mL (≈ 1.69 µM) | MIC ([4]; Candida albicans, ATCC62376, 48 h): 1.56 µg/mL (≈ 1.69 µM) | mammalian toxicity [5]: considerable | untoward effects [5]: anaphylaxis, thrombocytopenia, flushing, generalized pain, convulsions, chills, fever, phlebitis, headache, anemia, anorexia and decreased kidney function | MIC (Candida kefyr ATCC 28838; ATCC28838, 48 h): 1.56 µg/mL (≈ 1.69 µM) | MIC ([6]; Candida albicans, ATCC38247, 48 h): 12.5 µg/mL (≈ 13.5 µM) | oral bioavailability ([7]; po): poor | patients experiencing impaired kidney function (kidney function): 80% | MIC ([8]; ATCC15545, 48 h): 3.12 µg/mL (≈ 3.38 µM) | MIC ([9]; ATCC34140, 48 h): 3.12 µg/mL (≈ 3.38 µM)

[O-][S+]1c2ccccc2SN1c1ccccc1 (stereo not drawn) [Example 30, 2-phenyl-1,3,2-benzodithiazole-1-oxide]
MIC [1, 11]: 25 µg/mL (≈ 101 µM) | MIC (Candida albicans CCH 442; [12]): 25 µg/mL (≈ 101 µM) | MIC (Candida albicans 579A; [13]): 12.5 µg/mL (≈ 50.5 µM) | MIC [2, 14]: 12.5 µg/mL (≈ 50.5 µM) | MIC [3, 15]: 25 µg/mL (≈ 101 µM) | MIC [4, 16]: 25 µg/mL (≈ 101 µM) | MIC (Candida kefyr ATCC 28838; [17]): 12.5 µg/mL (≈ 50.5 µM) | MIC [6, 18]: 25 µg/mL (≈ 101 µM) | MIC [8, 19]: 25 µg/mL (≈ 101 µM) | MIC [9, 20]: 25 µg/mL (≈ 101 µM)

[O-][S+]1c2ccccc2SN1c1ccc2c(c1)OCO2 (stereo not drawn) [Example 31]
MIC [1, 11]: 12.5 µg/mL (≈ 42.9 µM) | MIC (Candida albicans CCH 442; [12]): 25 µg/mL (≈ 85.8 µM) | MIC (Candida albicans 579A; [13]): 25 µg/mL (≈ 85.8 µM) | MIC [2, 14]: 12.5 µg/mL (≈ 42.9 µM) | MIC [3, 15]: 50 µg/mL (≈ 172 µM) | MIC [4, 16]: 25 µg/mL (≈ 85.8 µM) | MIC (Candida kefyr ATCC 28838; [17]): 12.5 µg/mL (≈ 42.9 µM) | MIC [6, 18]: 25 µg/mL (≈ 85.8 µM) | MIC [8, 19]: 12.5 µg/mL (≈ 42.9 µM) | MIC [9, 20]: 50 µg/mL (≈ 172 µM)

[O-][S+]1c2ccccc2SN1Cc1cccs1 (stereo not drawn) [Example 34, 2-(2-thienyl)methyl-1,3,2-benzodithiazole-1-oxide]
MIC [1, 11]: 1.56 µg/mL (≈ 5.83 µM) | MIC (Candida albicans CCH 442; [12]): 0.78 µg/mL (≈ 2.92 µM) | MIC (Candida albicans 579A; [13]): 0.78 µg/mL (≈ 2.92 µM) | MIC [2, 14]: 0.39 µg/mL (≈ 1.46 µM) | MIC [3, 15]: 50 µg/mL (≈ 187 µM) | MIC [4, 16]: 0.78 µg/mL (≈ 2.92 µM) | MIC (Candida kefyr ATCC 28838; [17]): 0.78 µg/mL (≈ 2.92 µM) | MIC [6, 18]: 1.56 µg/mL (≈ 5.83 µM) | MIC [8, 19]: 50 µg/mL (≈ 187 µM) | MIC [9, 20]: 6.25 µg/mL (≈ 23.4 µM)

[O-][S+]1c2ccccc2SN1Cc1ccccc1 (stereo not drawn) [Example 35, 2-benzyl-1,3,2-benzodithiazole-1-oxide]
MIC [1, 11]: 0.78 µg/mL (≈ 2.98 µM) | MIC (Candida albicans CCH 442; [12]): 0.78 µg/mL (≈ 2.98 µM) | MIC (Candida albicans 579A; [13]): 0.78 µg/mL (≈ 2.98 µM) | MIC [2, 14]: 0.39 µg/mL (≈ 1.49 µM) | MIC [3, 15]: 1.56 µg/mL (≈ 5.97 µM) | MIC [4, 16]: 0.78 µg/mL (≈ 2.98 µM) | MIC (Candida kefyr ATCC 28838; [17]): 0.39 µg/mL (≈ 1.49 µM) | MIC [6, 18]: 6.25 µg/mL (≈ 23.9 µM) | MIC [8, 19]: 1.56 µg/mL (≈ 5.97 µM) | MIC [9, 20]: 6.25 µg/mL (≈ 23.9 µM)

[O-][S+]1c2ccccc2SN1Cc1ccc(Cl)cc1Cl (stereo not drawn) [Example 36, 2-(2,4-dichlorophenyl)methyl-1,3,2-benzodithiazole-1-oxide]
MIC [1, 11]: 3.12 µg/mL (≈ 9.45 µM) | MIC (Candida albicans CCH 442; [12]): 6.25 µg/mL (≈ 18.9 µM) | MIC (Candida albicans 579A; [13]): 1.56 µg/mL (≈ 4.72 µM) | MIC [2, 14]: 3.12 µg/mL (≈ 9.45 µM) | MIC [3, 15]: 3.12 µg/mL (≈ 9.45 µM) | MIC [4, 16]: 3.12 µg/mL (≈ 9.45 µM) | MIC (Candida kefyr ATCC 28838; [17]): 0.78 µg/mL (≈ 2.36 µM) | MIC [6, 18]: 12.5 µg/mL (≈ 37.8 µM) | MIC [8, 19]: 3.12 µg/mL (≈ 9.45 µM) | MIC [9, 20]: 25 µg/mL (≈ 75.7 µM)

CN(C)c1ccc(CN2Sc3ccccc3[S+]2[O-])cc1 (stereo not drawn) [Example 37, 2-(4-(dimethylamino)phenyl)methyl-1,3,2-benzodithiazole-1-oxide]
MIC [1, 11]: 1.56 µg/mL (≈ 5.12 µM) | MIC (Candida albicans CCH 442; [12]): 6.25 µg/mL (≈ 20.5 µM) | MIC (Candida albicans 579A; [13]): 3.12 µg/mL (≈ 10.2 µM) | MIC [2, 14]: 3.12 µg/mL (≈ 10.2 µM) | MIC [3, 15]: 6.25 µg/mL (≈ 20.5 µM) | MIC [4, 16]: 6.25 µg/mL (≈ 20.5 µM) | MIC (Candida kefyr ATCC 28838; [17]): 1.56 µg/mL (≈ 5.12 µM) | MIC [6, 18]: 3.12 µg/mL (≈ 10.2 µM) | MIC [8, 19]: 6.25 µg/mL (≈ 20.5 µM) | MIC [9, 20]: 12.5 µg/mL (≈ 41.1 µM)

[O-][S+]1c2ccccc2SN1CCCc1ccccc1 (stereo not drawn) [Example 39, 2-(3-phenylpropyl)-1,3,2-benzodithiazole-1-oxide]
MIC [1, 11]: 1.56 µg/mL (≈ 5.39 µM) | MIC (Candida albicans CCH 442; [12]): 3.12 µg/mL (≈ 10.8 µM) | MIC (Candida albicans 579A; [13]): 3.12 µg/mL (≈ 10.8 µM) | MIC [2, 14]: 1.56 µg/mL (≈ 5.39 µM) | MIC [3, 15]: 6.25 µg/mL (≈ 21.6 µM) | MIC [4, 16]: 3.12 µg/mL (≈ 10.8 µM) | MIC (Candida kefyr ATCC 28838; [17]): 1.56 µg/mL (≈ 5.39 µM) | MIC [6, 18]: 12.5 µg/mL (≈ 43.2 µM) | MIC [8, 19]: 3.12 µg/mL (≈ 10.8 µM) | MIC [9, 20]: 25 µg/mL (≈ 86.4 µM)

CC(=O)N1CCN(c2ccc(OCC3COC(Cn4ccnc4)(c4ccc(Cl)cc4Cl)O3)cc2)CC1 (stereo not drawn) [Ketoconazole]
inhibition of testosterone biosynthesis [10]: inhibitors of the biosynthesis of testosterone | fungistatic/fungicidal action (fungi): fungistatic and not fungicidal | hepatotoxicity [5]: hepatotoxins | oral activity ([7]; po): orally active | absorption into the cerebrospinal fluid [7]: poorly absorbed

Source: US5140018A, “1,3,2-benzodithiazole-1-oxide compounds” (Abbott Laboratories, priority 1991, dated 1992)
